Measured values taken from patent US6476059B1, “Use of polycyclic 2-aminothiazole systems for the treatment of obesity” (Aventis Pharma Deutschland GmbH, priority 1999, dated 2002).

Columns and labels:
male NMRI mice = assay: Anorectic effect: cumulative condensed milk consumption after gavage; type: in vivo; details: oral dose 50 mg/kg by gavage, feed withdrawn for 24 hours; for Reduction in the cumulative milk consumption as % of the controls: compared with untreated control animals; for cumulative milk consumption by the treated animals: condensed milk offered 30 minutes after administration, consumption determined every half hour for 7 hours
Method: The anorectic effect was tested on male NMRI mice. After withdrawal of feed for 24 hours, the test product was administered by gavage. The animals were housed singly and had free access to drinking water and, 30 minutes after administration of the product, they were offered condensed milk. The consumption of condensed milk was determined, and the general behavior of the animals was inspected, every half hour for 7 hours. The measured milk consumption was compared with that of untreated control animals.

Row | Compound | Reduction in the cumulative milk consumption as % of the controls (male NMRI mice) | cumulative milk consumption by the treated animals (male NMRI mice) | melting point
1 | CNc1nc2c(s1)Cc1cc(OCC(F)(F)C(F)(F)F)ccc1-2.Cl [Example 18, Methyl[6-(2,2,3,3,3-pentafluoropropoxy)-8H-indeno[1,2-d]thiazol-2-yl]amine hydrochloride] | 90% | 5/0.38 ml | 258 °C
2 | Br.CN(C)c1nc2c(s1)Cc1cc(C#N)ccc1-2 [Example 2, 2-Dimethylamino-8H-indeno[1,2-d]thiazole-6-carbonitrile hydrobromide] | 85% | 5/0.76 ml | > 300 °C
3 | N=C(Nc1ccccc1)Nc1nc2c(s1)Cc1cc(Cl)ccc1-2 [Example 7, N-(6-Chloro-8H-indeno[1,2-d]thiazol-2-yl)-N′-phenylguanidine] |  |  | 210 °C
4 | N#CNc1nc2c(s1)Cc1cc(Cl)ccc1-2 [Example 4, 6-Chloro-8H-indeno[1,2-d]thiazol-2-yl-cyanamide] |  |  | 225 °C
5 | CS(=O)(=O)c1ccc2c(c1)-c1nc(N)sc1C2.Cl |  |  | > 230 °C
6 | CNc1nc2c(s1)Cc1cc(-c3cccnc3)ccc1-2.Cl [Example 26, Methyl(6-pyridin-3-yl-8H-indeno[1,2-d]thiazol-2-yl)amine hydrochloride] | 77% | 5/0.68 ml | 225 °C
7 | O=CNc1nc2c(s1)Cc1cc(Cl)ccc1-2 [Example 6, N-(6-chloro-8H-indeno[1,2-d]thiazol-2-yl)formamide] | 77% | 5/0.96 ml | 295 °C
8 | Cc1cccc(Oc2ccc3c(c2)Cc2sc(N)nc2-3)c1.Cl [Example 27, 6-m-Tolyloxy-8H-indeno[1,2-d]thiazol-2-yl-amine hydrochloride] | 79% | 5/0.74 ml | 174 °C
